Publication PMC12503906, “Novel Pyrazolo [1,5‐a]−1,3,5‐Triazine Derivatives as CDK7 Inhibitors: Synthesis and Biological Insights in Pancreatic Ductal Adenocarcinoma Models” (Chemmedchem, 2025)

System: peptide substrates specific to tyrosine kinases
Test: Kinase activity profiling, PamChip array, peptide substrates / other kinases
Format: cell-based
Conditions: PDAC‐3 primary cells, IC50 concentration, 2 h, Pamgene array
Procedure: A Kinase activity profiling was conducted using a PamChip (Pamgene, s‐Hertogenbosch, The Netherlands) array containing 144 peptide substrates specific to tyrosine kinases to assess activity changes upon treatment with compounds 1b and 1g. Experiments were carried out in PDAC3 cells, using biological triplicates comprising three untreated controls and three samples treated for 2 h with either compound at their respective 1 × IC50 concentrations, following protocols adapted from previous studies.^[ [38] ^] Protein concentrations were quantified using the Bio‐Rad protein assay, which is based on the Bradford method (Bio‐Rad, Hercules, CA). For chip loading, protein lysates were adjusted to a final concentration of 10 µg per array and combined with PamGene MasterMix. During the assay, samples were circulated through the array at 30 °C with one cycle per minute over 60 cycles. Fluorescence data acquisition was performed using a 12‐bit CCD camera, capturing real‐time fluorescence intensities. End‐point spot intensities were analyzed using the open‐source software ScanAnalyze, with background normalization applied. Statistical comparisons were performed using student's t‐test in R (version 3.6.1), followed by false discovery rate (FDR) correction.

With `Nc1ncnc2cc(-c3c[nH]c4ccc(Br)cc34)nn12` [Compound 1b, 7‐(5‐Bromo‐1H‐indol‐3‐yl)pyrazolo[1,5‐a][1,3,5]triazin‐4‐amine] the “inhibition of the other kinases (other than CDK7)” value was “below 50%”.
